The source of these data is the NIST ThermoML archive (doi:10.1016/j.jct.2016.06.032).

SMILES strings stand for the structures. ± gives the expanded uncertainty stated by the source.

Data set [1] is described as follows: Molar enthalpy of transition or fusion. To be noted: Crystal; DSC.
The conditions of data set [2]: Crystal; DTA.

Consider `N#Cc1ccccc1-c1ccc(CBr)cc1` [4'-(bromomethyl)-2-cyanobiphenyl], for which the “Molar enthalpy of transition or fusion” value in data set [1] was 7 ± 0.454 kcal/mol. In data set [2], the Normal melting temperature stood at 125.90 ± 1.1 °C.
